Data taken from patent US12497393B2, “β-lactam compound, use thereof and preparation method therefor” (priority 2020, dated 2025).
Read-outs that look alike come from different tables or passages of the source. Where a SMILES comes first, the peptide text is derived from it. Bridges are numbered along the chain shown (N, C = ends). [ ]: non-standard residue; d: D form. The star is where a group is joined. Heptanoyl(6-Me) = CC(C)CCCCC(=O)*; Dab = NCC[C@H](N)C(=O)O

How the values were obtained:
Assay in all cases: Antibacterial activity MIC assay (two-fold dilution agar plating)
Format in all cases: cell-based
[1] = system: Acinetobacter baumannii; details: for MIC: Acinetobacter baumannii, read-out: Minimal Inhibitory Concentration (MIC)
Experimental: (§1) Antibacterial Activity-Evaluating Method (MIC Assay)
(§2) In this study, the compounds of the present invention were tested for their antibacterial activities by using two-fold dilution agar plating method and Denley Multipoint Inoculator A400 according to the guidelines of the CLSI/NCCLS standard. The tested strains were amplified by hydrolyzed casein peptone (Mueller-Hinton Agar) broth and Brain and Heart Infusion. The strains used in this study were bacterial strains that were purchased from ATCC or clinically isolated in Chinese hospitals. Aztreonam, polymyxin or levofloxacin was used as positive control. The drugs were diluted with hydrolyzed casein peptone broth to the desired concentrations including 128.0, 64.0, 32.0, 16.0, 8.0, 4.0, 2.0, 1.0, 0.5, 0.25, 0.125, 0.06 and 0.03 μg/mL, and then placed respectively into each well and mixed thoroughly. After inoculation, the tested strains were incubated for 18 hours at a constant temperature of 35° C., and their growth levels were observed. The drug concentration with no microbial growth in the well was recorded as the lowest Minimal Inhibitory Concentration (MIC).

[2] = system: Salmonella typhi; details: for MIC: Salmonella enterica, TYPHI, read-out: Minimal Inhibitory Concentration (MIC)
Experimental: as §1, §2

[3] = system: Proteus vulgaris; details: for MIC: Proteus vulgaris, ATCC29905, Proteus vulgaris ATCC 29905, read-out: Minimal Inhibitory Concentration (MIC)
Experimental: as §1, §2

[4] = system: Serratia marcescens; details: Serratia marcescens ATCC 21074; for MIC: ATCC21074, read-out: Minimal Inhibitory Concentration (MIC)
Experimental: as §1, §2

[5] = system: Enterobacter aerogenes; details: Enterobacter aerogenes ATCC 13048; for MIC: Klebsiella aerogenes, ATCC13048, read-out: Minimal Inhibitory Concentration (MIC)
Experimental: as §1, §2

[6] = system: Providencia rettgeri; details: for MIC: Providencia rettgeri, ATCC31052, Providencia rettgeri ATCC 31052, read-out: Minimal Inhibitory Concentration (MIC)
Experimental: as §1, §2

[7] = system: Stenotrophomonas maltophilia; details: Stenotrophomonas maltophilia ATCC 13636; for MIC: ATCC13636, read-out: Minimal Inhibitory Concentration (MIC)
Experimental: as §1, §2

[8] = system: Escherichia coli; details: for MIC: Escherichia coli, read-out: Minimal Inhibitory Concentration (MIC)
Experimental: as §1, §2

[9] = system: Klebsiella Pneumoniae; details: for MIC: Klebsiella pneumoniae, read-out: Minimal Inhibitory Concentration (MIC)
Experimental: as §1, §2

[10] = system: Proteus mirabilis; details: for MIC: Proteus mirabilis, ATCC49565, Proteus mirabilis ATCC 49565, read-out: Minimal Inhibitory Concentration (MIC)
Experimental: as §1, §2

[11] = system: Shigella flexneri; details: Shigella flexneri ATCC 12022; for MIC: ATCC12022, read-out: Minimal Inhibitory Concentration (MIC)
Experimental: as §1, §2

[12] = system: Citrobacter freundii; details: Citrobacter freundii ATCC 43864; for MIC: ATCC43864, read-out: Minimal Inhibitory Concentration (MIC)
Experimental: as §1, §2

[13] = system: Pseudomonas aeruginosa; details: for MIC: read-out: Minimal Inhibitory Concentration (MIC)
Experimental: as §1, §2

[14] = system: Enterobacter cloacae; details: for MIC: read-out: Minimal Inhibitory Concentration (MIC)
Experimental: as §1, §2

[15] = ATCC19606, Acinetobacter baumannii ATCC 19606
[16] = ATCC25922, Escherichia coli ATCC 25922, ESBLs(−)
[17] = ATCC35218, Escherichia coli ATCC 35218, ESBLs(+)
[18] = Escherichia coli 08-85, mcr-1(+)
[19] = Escherichia coli 13-43, mcr-1(+)
[20] = Escherichia coli 13-66, mcr-1(+)
[21] = Escherichia coli 16-1, ESBLs(+)
[22] = Escherichia coli 16-7, ESBLs(−)
[23] = Escherichia coli 17-R28, CRE, NDM-1(+)
[24] = Escherichia coli CDC1001728, NDM-1(+)
[25] = ATCC700603, Klebsiella Pneumoniae ATCC 700603, ESBLs(+)
[26] = ATCCBAA2146, Klebsiella Pneumoniae ATCC BAA-2146, NDM-1(+)
[27] = Klebsiella Pneumoniae 09-20, mcr-1(+)
[28] = Klebsiella Pneumoniae 16-2, ESBLs(−)
[29] = Klebsiella Pneumoniae 16-14, ESBLs(+)
[30] = ATCC27853, Pseudomonas aeruginosa ATCC 27853
[31] = ATCC43560, Enterobacter cloacae ATCC 43560
[32] = Enterobacter cloacae CDC1000654

C[C@H]1COc2c(N3CCN(C)CC3)c(F)cc3c(=O)c(C(=O)O)cn1c23 [Levofloxacin, levofloxacin, reference compound]
16 µg/mL: MIC ([1]; Acinetobacter baumannii 16-16) | MIC [8, 18] | MIC [9, 27]
1 µg/mL: MIC [13, 30]
0.06 µg/mL: MIC [5] | MIC [9, 28] | MIC [11]
4 µg/mL: MIC ([13]; Pseudomonas aeruginosa PAO1)
128 µg/mL: MIC [9, 26]
≤ 0.03 µg/mL: MIC [2] | MIC [3] | MIC [6] | MIC [8, 16] | MIC [8, 17] | MIC [10] | MIC [12] | MIC [14, 31]
2 µg/mL: MIC ([1]; Acinetobacter baumannii 16-33) | MIC [7]
8 µg/mL: MIC [8, 23] | MIC [8, 24]
0.12 µg/mL: MIC [4]
32 µg/mL: MIC [8, 19] | MIC [8, 20] | MIC [14, 32]
0.5 µg/mL: MIC [8, 21] | MIC [8, 22] | MIC [9, 25] | MIC [9, 29] | MIC ([13]; Pseudomonas aeruginosa 16-11)
0.25 µg/mL: MIC [1, 15]

CC1(C)[C@H](NC(=O)/C(=N\OC2(C(=O)O)CCCCC2)c2csc(N)n2)C(=O)N1OS(=O)(=O)O [Compound A-7]
0.25 µg/mL: MIC [3] | MIC [6]
4 µg/mL: MIC [2] | MIC [5] | MIC [8, 16] | MIC ([9]; Klebsiella Pneumoniae 17-R27, CRE)
8 µg/mL: MIC [9, 25] | MIC [9, 26]
64 µg/mL: MIC [8, 23]
2 µg/mL: MIC [4] | MIC [8, 18] | MIC [8, 19] | MIC [8, 20] | MIC [8, 22] | MIC [8, 24] | MIC [9, 27] | MIC [9, 28] | MIC [9, 29] | MIC [11] | MIC [12]
16 µg/mL: MIC [7] | MIC [14, 32]
1 µg/mL: MIC [8, 17] | MIC [8, 21] | MIC [14, 31]
32 µg/mL: MIC [1, 15] | MIC ([1]; Acinetobacter baumannii 16-33) | MIC [13, 30] | MIC ([13]; Pseudomonas aeruginosa PAO1)
0.12 µg/mL: MIC [10]
> 64 µg/mL: MIC ([1]; Acinetobacter baumannii 16-16) | MIC ([13]; Pseudomonas aeruginosa 16-11)

CC(C)CCCCC(=O)N[C@@H](CCN)C(=O)N[C@H](C(=O)N[C@@H](CCN)C(=O)N[C@H]1CCNC(=O)[C@H]([C@@H](C)O)NC(=O)[C@H](CCN)NC(=O)[C@H](CCN)NC(=O)[C@H](CC(C)C)NC(=O)[C@@H](CC(C)C)NC(=O)[C@H](CCN)NC1=O)[C@@H](C)O [Colistin B, colistin B, reference compound] ({Heptanoyl(6-Me)}-[Dab]T[Dab][Dab][Dab][dL]L[Dab][Dab]T; lactam 4-C)
1 µg/mL: Minimal Inhibitory Concentration (MIC) ([1]; Acinetobacter baumannii 16-16) | Minimal Inhibitory Concentration (MIC) ([1]; Acinetobacter baumannii ATCC 19606) | Minimal Inhibitory Concentration (MIC) ([2]; Salmonella typhi H901) | Minimal Inhibitory Concentration (MIC) [8, 22] | Minimal Inhibitory Concentration (MIC) ([8]; Escherichia coli ATCC 25922, ESBLs(−)) | Minimal Inhibitory Concentration (MIC) ([8]; Escherichia coli ATCC 35218, ESBLs(+)) | Minimal Inhibitory Concentration (MIC) [8, 24] | Minimal Inhibitory Concentration (MIC) [9, 28] | Minimal Inhibitory Concentration (MIC) [9, 29] | Minimal Inhibitory Concentration (MIC) ([9]; Klebsiella Pneumoniae ATCC BAA-2146, NDM-1(+)) | Minimal Inhibitory Concentration (MIC) [14, 32]
>64 µg/mL: Minimal Inhibitory Concentration (MIC) ([3]; Proteus vulgaris ATCC 29905) | Minimal Inhibitory Concentration (MIC) [4] | Minimal Inhibitory Concentration (MIC) ([6]; Providencia rettgeri ATCC 31052) | Minimal Inhibitory Concentration (MIC) [7] | Minimal Inhibitory Concentration (MIC) ([10]; Proteus mirabilis ATCC 49565) | Minimal Inhibitory Concentration (MIC) ([14]; Enterobacter cloacae ATCC 43560)
16 µg/mL: Minimal Inhibitory Concentration (MIC) [9, 27]
2 µg/mL: Minimal Inhibitory Concentration (MIC) ([1]; Acinetobacter baumannii 16-33) | Minimal Inhibitory Concentration (MIC) [5] | Minimal Inhibitory Concentration (MIC) ([9]; Klebsiella Pneumoniae ATCC 700603, ESBLs(+)) | Minimal Inhibitory Concentration (MIC) [12]
0.5 µg/mL: Minimal Inhibitory Concentration (MIC) [8, 21] | Minimal Inhibitory Concentration (MIC) [11]
4 µg/mL: Minimal Inhibitory Concentration (MIC) ([13]; Pseudomonas aeruginosa 16-11) | Minimal Inhibitory Concentration (MIC) ([13]; Pseudomonas aeruginosa ATCC 27853)
8 µg/mL: Minimal Inhibitory Concentration (MIC) [8, 18] | Minimal Inhibitory Concentration (MIC) [8, 19] | Minimal Inhibitory Concentration (MIC) [8, 20] | Minimal Inhibitory Concentration (MIC) ([13]; Pseudomonas aeruginosa PAO1)
